Measured values reported in patent US20120263849A1, “BITTERNESS SUPPRESSION METHOD” (KAO CORPORATION, priority 2010, published 2012).

Test: Sensory test of bitterness, agent added to quinine sulfate standard solutions
Format: in vivo, people
Conditions: summary of Tables 2 to 4 (quinine sulfate and catechin test solutions)
Description: The bitterness suppression agent of the present invention may be applied to any substance without any particular limitation as long as the substance contains a bitter component. It is preferably applied to a composition having a bitterness having a bitterness intensity of 7 or less based on the quinine sulfate standard solution. […] More specifically, the bitterness intensity is determined by the following procedure. […] Then, the values of bitterness intensity determined by each subject are averaged out and provided as the bitterness intensity of the test substance. […]
Five subjects conducted a sensory test with reference to the bitterness level of each test solution using the quinine sulfate standard solutions shown in the following Table 1 as a standard, and an average score of the evaluation scores submitted by each subject was calculated. […]

## COC(=O)c1ccccc1O [methyl salicylate]
  Suppression of bitterness (summary in words): effective suppression of bitterness without impairing the original taste and flavor
